Results on 2 compounds are retold here after US5447931A, “New therapeutic use of heterocyclylpiperazines as 5-HT3 agonists and new compounds” (Sanofi, priority 1992, dated 1995).

For this test, the system named is 5-HT3 receptors. Briefly: Bezold-Jarisch effect (reduction of heart rate) in the anesthetized rat, intravenous administration. It is filed as in vivo, Sprague-Dawley rats. The following applies: antagonist against the heart rate reduction by compounds of formula (I).

Turning to `CN1[C@@H]2CC[C@H]1C[C@@H](OC(=O)c1c[nH]c3ccccc13)C2` [ICS 205-930], the “inhibition by antagonist of the Bezold-Jarisch effect evoked by compounds of formula (I)” value is reported as “inhibited”. On to `COc1cc(N)c(Cl)cc1C(=O)NC1CN2CCC1CC2` (centres unmarked) [zacopride], for which the “inhibition by antagonist of the Bezold-Jarisch effect evoked by compounds of formula (I)” value is listed as “inhibited”.
